# From ChEMBL document CHEMBL1157539, “Thousands of chemical starting points for antimalarial lead identification” (Nature, 2010)
# Tested on: Plasmodium falciparum
# Test: GSK_TCMDC: Inhibition of Plasmodium falciparum 3D7 in whole erythrocytes, using parasite LDH activity as an index of growth.
# Assay type: functional, organism-based
# Conditions: Plasmodium falciparum, 3D7
row,SMILES,XC50 [nM]
1,O=C(Cn1c(SCc2cccc(F)c2F)cc(=O)c2ccccc21)N(CCN1CCCCC1)Cc1ccc(-c2ccc(C(F)(F)F)cc2)cc1,664
2,CC(C)(C)N1CCC(N(Cc2ccc(-c3ccc(C(F)(F)F)cc3)cc2)C(=O)Cn2c(CCc3cccc(F)c3F)nc(=O)c3cccnc32)CC1,757
3,Cc1[nH]c(C)c([N+](=O)[O-])c(=O)c1-c1ccc(Oc2ccc(OC(F)(F)F)cc2)cc1,247
4,O=S(=O)(c1csc2ccccc12)N(CCC(O)(C(F)(F)F)C(F)(F)F)Cc1cccc(O)c1,360
5,CCCC(CNCc1cccc(SC(F)(F)F)c1)CNc1cc(=O)c2ccccc2[nH]1 (stereo not drawn),715
6,O=C(Nc1cc(F)cc(F)c1)N1CCOC(CCN2CCC(c3ccccc3)CC2)(c2ccc(Cl)c(Cl)c2)C1 (stereo not drawn),466
7,CN1CCN(c2ccc(Cl)cc2NC(=O)C2COc3ccccc3O2)CC1 (stereo not drawn),810
8,Cc1cc(C2CCN(CCCCNC(=O)c3ccc(-c4ccc(C(F)(F)F)cc4)cc3)CC2)c(C)cc1OCCOC1CCCCO1 (stereo not drawn),785
9,CC(=O)N1N=C(c2cccs2)Sc2c1nc(-c1ccc(Cl)cc1)n2C(C)=O,736
10,CC(=O)Nc1nc(C(=O)Nc2cccc(-c3cccc(-c4nc5cc(F)ccc5[nH]4)c3)c2)cs1,89.2
11,FC(F)(F)c1ccc2[nH]c(-c3cccc(-c4cccc(CNCC5CCCO5)c4)c3)nc2c1 (stereo not drawn),422
12,c1ccc(Oc2ccc(Nc3ccnc4cc(-c5ccc(CN6CCCCC6)o5)ccc34)cc2)nc1,331
13,Cc1cc([N+](=O)[O-])ccc1NC(=O)Nc1cccc(C(F)(F)F)c1,721
14,Cc1cc(Nc2c(C(N)=O)cnc3cc(-c4ccoc4)ccc23)ccc1N1CCN(C)CC1,797
15,O=C(N[C@H]1CCN(Cc2ccc(OCCN3CCNCC3)c(Cl)c2)C1)c1ccc(Cl)c(Cl)c1,1060
16,O=C(NC(Nc1ccc([N+](=O)[O-])cc1)C(Cl)(Cl)Cl)c1cccc(Cl)c1 (stereo not drawn),863
17,CC(C)(C)c1ccc(C(=O)Nc2ccc(NC(=O)c3ccc([N+](=O)[O-])o3)cc2)cc1,844
18,O=C(/C=C/c1cc(C(F)(F)F)ccc1F)NCCCCCN1CCC(c2c[nH]c3ccccc23)CC1,1130
19,O=C(NCc1cccc2ccccc12)[C@@H]1CCCN1C(=O)c1ccc(O)c(-c2ccc(Cl)c(Cl)c2)c1,948
20,CC(C)(CNCc1ccc(Cl)cc1)c1nc(-c2ccc(Cl)c(O)c2)c(-c2ccncc2)[nH]1,476
21,COc1ccc2nccc(N3CCN(CCNCc4ccc5c(n4)NC(=O)CO5)CC3)c2n1,885
22,O=C(Nc1cccc(-c2cc(-c3c(Cl)cccc3Cl)no2)c1)c1cncc(-c2cccs2)c1,952
23,O=C(NCC1CCC(C(=O)NCc2cccc(C(F)(F)F)c2)CC1)c1ccc(O)c(-c2ccc(Cl)c(Cl)c2)c1 (stereo not drawn),711
24,CN1CCN(c2cc3c(cc2Cl)CCN3C(=O)Nc2ccc(NC(=O)c3ccc(C(F)(F)F)cc3)cc2)CC1,515

row,SMILES,XC50 [nM]
1,CN1CCN(CC(=O)Nc2cccc(-c3cccc(-c4nc5cc(F)ccc5[nH]4)c3)c2)CC1,741
2,Fc1ccc2[nH]c(-c3ccc(-c4ccc(CN5CCN(CCN6CCOCC6)CC5)cc4)cc3)nc2c1,183
3,CCN(CC)CCNC(=O)c1ccc(NC(=O)c2cc(-c3ccncc3)nc3ccccc23)cc1,770
4,COc1ccc2ncc(C#N)c(CCN3CCC(NCc4ccc5c(c4)OCCO5)CC3)c2c1,910
5,COc1ccc(CCN(C)CCCN2CCC(NC(=O)c3cccc4c(=O)c5ccccc5sc34)CC2)cc1OC,786
6,CCOc1cc2ccccc2cc1CNCCCCCCNCc1cc2ccccc2cc1OCC,979
7,CCC1CN2CCc3c([nH]c4ccc(OC)cc34)C2CC1CC1NCCc2cc(OC)c(OC)cc21 (stereo not drawn),862
8,CN(c1cc(NC(=O)c2cccs2)ccn1)C1CCN(Cc2cccc(C#N)c2)CC1,1260
9,COc1ccccc1N1CCN(CCCCNC(=O)c2ccc(NC(=O)c3ccc(OC(F)(F)F)cc3)cc2)CC1,663
10,Cc1ccc(CC(C)(C)NCC(O)c2cccc(C(F)(F)F)c2)cc1 (stereo not drawn),836
11,Cc1ccc(-c2nc(N3CCN(C(=O)c4ccco4)CC3)c3ccccc3n2)cc1,970
12,COC(=O)c1cccc(NC(=O)NC2CCN(c3ccnc(NCc4ccc(F)cc4)n3)CC2)c1,809
13,CCc1cc(I)c2c(c1)C(NCCCNc1cc(=O)c3ccccc3[nH]1)CCN2 (stereo not drawn),887
14,CC1(C)NC(N)=NC(=N)N1OCc1cc(Cl)c(Cl)cc1CON1C(=N)N=C(N)NC1(C)C,14.6
15,Clc1ccc2nnc(-c3c(Cl)cccc3Cl)n2n1,905
16,O=C(C=Cc1ccccc1O)N1CCC(CN2CCC(c3c[nH]c4ccccc34)CC2)CC1,961
17,COc1ccccc1CNC(=O)C(=O)Nc1c(-c2ccccc2)[nH]c2ccccc12,737
18,Cc1cc(NCCc2cccc(F)c2)nc(NC(=N)Nc2cccc(C(F)(F)F)c2)n1,146
19,O=C(Cc1ccsc1)NCC(c1ccccc1Cl)c1c[nH]c2ccccc12 (stereo not drawn),950
20,CCCCCCCNCc1c(O)ccc2c(CNCCCCCCC)c(O)ccc12,150
21,CC(C)(CNCCOc1ccc(Cl)cc1)c1nc(-c2ccnc(N)n2)c(-c2ccc(Cl)c(O)c2)[nH]1,834
22,COc1ccc(C2CCN(CCCCNC(=O)c3ccc(NC(=O)c4ccc(Cl)cc4)cc3)C2)c(OC)c1 (stereo not drawn),1200
23,COc1ccc(CNCCCCCNCc2ccc(Cl)c(Cl)c2)cc1Cl,751
24,C[C@@H](NC(=O)c1nn(-c2ccc(Cl)cc2)c(=O)c2ccccc12)C(C)(C)C,1120

row,SMILES,XC50 [nM]
1,COc1cc(CS(C)(=O)=O)ccc1Nc1nccc(-c2c(-c3cccc(NC(=O)c4c(F)cccc4F)c3)nn3ccccc23)n1,966
2,O=C(Nc1ccc(C(F)(F)F)cc1)NC1CCN(c2ccnc3cc(Cl)ccc23)C1 (stereo not drawn),139
3,CCOC(=O)c1ccc(NC(=O)NNC(=O)c2ccc(CCN3CCC(c4nc(COCC(F)(F)F)c(-c5ccc(F)cc5)o4)CC3)cc2)cc1,574
4,COc1ccc(OCCCN2CCN(CC(c3ccc(F)cc3)N3CCN(C(C)C)CC3)CC2)c2ccccc12 (stereo not drawn),650
5,C[C@@H]1CC[C@H](NC(=O)[C@H](CC2CCCC2)NC(=O)N2CCNCC2)C(=O)CN1S(=O)(=O)c1ccccn1,891
6,Cc1ccc(O)cc1Nc1ccnc2cc(-c3csc(CN(C)CCN(C)C)n3)ccc12,789
7,CCCCCC(C)C(C)c1cc(O)c2c(c1)OC1(C(C)C)CC(O)C(C)C2C1 (stereo not drawn),985
8,COC(=O)c1ccc2[nH]cc(C3CCN(CCC4CCN(C(=O)/C=C/c5ccc(Cl)c(Cl)c5)CC4)CC3)c2c1,512
9,COc1ccc2ccccc2c1CNCCCCCCNCc1c(OC)ccc2ccccc12,712
10,Cc1ccc2[nH]c(/C=C/c3cccc4cc[nH]c34)nc2c1,1180
11,O=C(Nc1cccc(CN2CCN(Cc3ccc(O)cc3)CC2)c1)c1ccc(Cl)c(Cl)c1,253
12,CC(=O)Nc1cccc(CN(Cc2ccc(-c3ccc(CNCc4cccnc4)cn3)cc2)C(=O)Cc2cccnc2)c1,820
13,O=C(Nc1cccc(CN2CCN(C(=O)c3ccccc3)CC2)c1)c1ccco1,886
14,O=C(Nc1cccc(CN2CCCN(Cc3ncc[nH]3)CC2)c1)c1cc2ccccc2s1,734
15,CCCC(=O)Nc1ccc(OCCCCN(Cc2ccccc2C(F)(F)F)c2ccc(C(F)(F)F)c(C#N)c2)cc1,973
16,CC(=O)Nc1nc(C(=O)Nc2ccc(-c3ccc(-c4nc5ccccc5[nH]4)cc3)cc2)cs1,150
17,CCCNC(=O)C1CCN(C(c2ccccc2)c2ccc(Cl)c(Cl)c2)CC1 (stereo not drawn),708
18,CC(C)COc1ccc(C(O)C(CN2CCCCC2)c2ccccc2)cc1 (stereo not drawn),923
19,Cc1cc(C)c(C)c(OCCCON2C(=N)N=C(N)NC2(C)C)c1C,3.2
20,CCn1cc2c3c(cc(C(=O)N[C@@H](Cc4ccccc4)[C@H](O)CNC4CCOCC4)cc31)N(C)S(=O)(=O)CC2,208
21,Cc1cc(S(=O)(=O)N2CCCCC(c3ccc(C(F)(F)F)cc3)=N2)c(Cl)cc1Cl,504
22,O=C(NC1CCN(Cc2ccccc2)CC1)c1cccc(Nc2nc(-c3ccccc3)cs2)c1,1030
23,O=C(/C=C/c1ccc(Cl)c(Cl)c1)NCCCCCN1CCC(NC(=O)Nc2ccccc2Cl)CC1,714
24,O=C(/C=C/c1ccc(Cl)c(Cl)c1)NCCCCCCN1CCCN(C(=O)Nc2ccc(F)c(Cl)c2)CC1,738

row,SMILES,XC50 [nM]
1,Clc1ccc(OC2CCC(Cn3ccnc3)(c3ccc(Cl)cc3Cl)CC2)c(Cl)c1 (stereo not drawn),800
2,CCCc1cc(NC2CCN(C)CC2)nc(Nc2cccc(OC)c2)n1,765
3,Cc1ccc(CNC(=O)[C@H](CCCN)Nc2cc(C)nc(NCC3CCCCC3)n2)cc1,1220
4,CCCNCc1ccc(-c2ccc(CN(CC3CCCO3)C(=O)COc3ccccc3Cl)cc2)nc1 (stereo not drawn),1180
5,CC(C)(CNC(=O)C1CCN(CCOc2ccc(Cl)cc2)CC1)c1nc(-c2ccc(Cl)c(O)c2)c(-c2ccncc2)[nH]1,709
6,CCOc1cc[nH]c(=O)n1,458
7,COc1ccc(Cc2nc(/N=C(\N)Nc3ccccc3)ccc2OC)cc1,852
8,CCCN/C=N/c1cc(-c2csc(NC(=N)N)n2)cc([N+](=O)[O-])c1,1740
9,Cc1ccc(-c2cc(C(=O)Nc3ccc(S(=O)(=O)N4CC(C)OC(C)C4)cc3)[nH]n2)c(O)c1 (stereo not drawn),608
10,Cc1cccc2nc(-c3cccc(-c4ccc(NC(=O)Nc5ccc(Cl)cc5)cc4)c3)[nH]c12,199
11,CN(C)C(=S)N/N=C1/C(=O)Nc2ccc(OC(F)(F)F)cc21,1020
12,Cc1cc(C(=O)CSc2nc3ccccc3n2-c2ccccc2)c(C)n1C1CCS(=O)(=O)C1 (stereo not drawn),1000
13,O=C(NC1CCN(c2ccnc3ccccc23)C1)c1ccc(OC(F)(F)F)cc1 (stereo not drawn),1150
14,COc1cccc(C(=O)N2CCN(Cc3cccc(NC(=O)c4cccs4)c3)CC2)c1,483
15,NC(=O)CN1CC=C(c2c[nH]c3ccc(Br)cc23)CC1,1100
16,COC(=O)C1(NC(=O)c2ccc(-n3nc(C)c(-c4ccccc4)c3N)cc2)CCCC1,370
17,O=C(/C=C/c1ccc(Cl)c(Cl)c1)NCCCCCN1CCC(NC(=O)Nc2ccccc2F)CC1,839
18,CCNC(=O)N[C@@H]1CN[C@@H](C#Cc2cc3c(Nc4ccc(OCc5cccc(F)c5)c(Cl)c4)ncnc3s2)C1,1010
19,CN1CCC(N(C)C(=O)C=Cc2cn(-c3ccccc3)nc2-c2cc3ccccc3o2)CC1,1340
20,Cc1cc(-c2ccc3c(c2)CCN(CCC2CCC(NC(=O)/C=C/c4ccc(F)cc4)CC2)CC3)on1 (stereo not drawn),724
21,O=C(/C=C/c1ccc(Cl)c(Cl)c1)NCCCCCN1CCC(c2n[nH]c(-c3ccccc3)c2Br)CC1,723
